Legend:
Experiment in all cases: relative viability (nuclei count vs DMSO), 5 days (fraction); higher = more cells survive
Serdemetan + OSI-027 = compound: c1ccc2c(CCNc3ccc(Nc4ccncc4)cc3)c[nH]c2c1 [Serdemetan] + COc1cccc2cc(-c3nc([C@H]4CC[C@H](C(=O)O)CC4)n4ncnc(N)c34)[nH]c12 [OSI-027] (partner 0.5 µM)
Summary of the method: (§1)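 After 5 days of treatment, lung cancer cells in 1536-well plates were fixed and stained in a single step (final 0.05% Triton X-100, 1% formaldehyde, 1 ug/ml Hoechst) and their nuclei counted on 4× images. Treatment had been applied by pin tool the day after seeding as one drug alone or as a fixed anchor-drug dose with five library-drug doses (not always all listed) in √10 steps. Relative viability is the nuclei count of treated wells divided by that of vehicle wells, and values are medians of duplicate plates.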

Selisistat + Tozasertib = compound: C1CC(C2=C(C1)C3=C(N2)C=CC(=C3)Cl)C(=O)N [Selisistat] + Cc1cc(Nc2cc(N3CCN(C)CC3)nc(Sc3ccc(NC(=O)C4CC4)cc3)n2)n[nH]1 [Tozasertib] (partner 0.1 µM)
Summary of the method: as §1

Serdemetan + Navitoclax = compound: c1ccc2c(CCNc3ccc(Nc4ccncc4)cc3)c[nH]c2c1 [Serdemetan] + CC1(C)CCC(c2ccc(Cl)cc2)=C(CN2CCN(c3ccc(C(=O)NS(=O)(=O)c4ccc(N[C@H](CCN5CCOCC5)CSc5ccccc5)c(S(=O)(=O)C(F)(F)F)c4)cc3)CC2)C1 [Navitoclax] (partner 0.5 µM)
Summary of the method: as §1

Selisistat + OSI-027 = compound: C1CC(C2=C(C1)C3=C(N2)C=CC(=C3)Cl)C(=O)N [Selisistat] + COc1cccc2cc(-c3nc([C@H]4CC[C@H](C(=O)O)CC4)n4ncnc(N)c34)[nH]c12 [OSI-027] (partner 0.5 µM)
Summary of the method: as §1

Cell Line UMC-11 has a relative viability (Serdemetan + OSI-027; first compound 0.04 µM) of 0.563, a relative viability (Serdemetan + OSI-027; first compound 0.1265 µM) of 0.485 and a relative viability (Serdemetan + OSI-027; first compound 4 µM) of 0.428. The relative viability (Selisistat + Tozasertib; first compound 0.4 µM) was 0.212, the relative viability (Selisistat + Tozasertib; first compound 1.265 µM) was 0.21 and the relative viability (Selisistat + Tozasertib; first compound 4 µM) was 0.209. For the same cell line, the relative viability (Selisistat + Tozasertib; first compound 12.65 µM) was 0.205, the relative viability (Selisistat + Tozasertib; first compound 40 µM) was 0.212 and the relative viability (Serdemetan + Navitoclax; first compound 0.04 µM) was 0.327. It also gave a relative viability (Serdemetan + Navitoclax; first compound 0.1265 µM) of 0.387, a relative viability (Serdemetan + Navitoclax; first compound 0.4 µM) of 0.314 and a relative viability (Serdemetan + Navitoclax; first compound 1.265 µM) of 0.266. It also gave a relative viability (Serdemetan + Navitoclax; first compound 4 µM) of 0.313, a relative viability (Selisistat + OSI-027; first compound 0.4 µM) of 0.498 and a relative viability (Selisistat + OSI-027; first compound 1.265 µM) of 0.398. For the same cell line, the relative viability (Selisistat + OSI-027; first compound 4 µM) was 0.385, the relative viability (Selisistat + OSI-027; first compound 12.65 µM) was 0.476 and the relative viability (Selisistat + OSI-027; first compound 40 µM) was 0.46.

Reference: the supplement of paper PMC10307832
